Laboratory results from patent publication US20200032271A1, “COMBINATION THERAPY WITH LIPOSOMAL ANTISENSE OLIGONUCLEOTIDES” (Bio-Path Holdings, Inc., priority 2016, published 2020).
[PEt] = P-ethoxy (ethyl phosphotriester) internucleoside linkage

Experiment: Adverse events in study 2003-0578 (NCI CTCAE grading)
Settings: all treatment groups

BP1001: liposome-incorporated P-ethoxy antisense oligodeoxynucleotide (5′-ATATTTGGCGATGGCTTC-3′, SEQ ID NO: 1) specific to grb2 mRNA, in neutral DOPC liposomes (DNA, all [PEt], methylation of C not given here; incorporated in neutral DOPC liposomes)
AML progression, number of patients (AML at enrollment (n = 30)): 19 | Abdominal Pain ≥Grade 3, number of patients (AML at enrollment (n = 30)): 1 | Acidosis ≥Grade 3, number of patients (AML at enrollment (n = 30)): 3 | Acute kidney injury ≥Grade 3, number of patients (AML at enrollment (n = 30)): 3 | Asthenia ≥Grade 3, number of patients (AML at enrollment (n = 30)): 1 | Back Pain ≥Grade 3, number of patients (AML at enrollment (n = 30)): 1 | Blood and lymphatic system disorders ≥Grade 3, number of patients (AML at enrollment (n = 30)): 10 | Cardiac disorders ≥Grade 3, number of patients (AML at enrollment (n = 30)): 1 | Cataract ≥Grade 3, number of patients (AML at enrollment (n = 30)): 1 | Dyspnea ≥Grade 3, number of patients (AML at enrollment (n = 30)): 3 | Extremity Lower Edema ≥Grade 3, number of patients (AML at enrollment (n = 30)): 1 | Eye disorders ≥Grade 3, number of patients (AML at enrollment (n = 30)): 1 | Febrile neutropenia ≥Grade 3, number of patients (AML at enrollment (n = 30)): 3 | Gastrointestinal disorders ≥Grade 3, number of patients (AML at enrollment (n = 30)): 1 | General disorders and administration site conditions ≥Grade 3, number of patients (AML at enrollment (n = 30)): 4 | Hallucinations ≥Grade 3, number of patients (AML at enrollment (n = 30)): 1 | Heart failure ≥Grade 3, number of patients (AML at enrollment (n = 30)): 1 | Hepatic failure ≥Grade 3, number of patients (AML at enrollment (n = 30)): 2 | Hepatobiliary disorders ≥Grade 3, number of patients (AML at enrollment (n = 30)): 2 | Hypocalcemia ≥Grade 3, number of patients (AML at enrollment (n = 30)): 1 | Hypoglycemia ≥Grade 3, number of patients (AML at enrollment (n = 30)): 1 | Hypokalemia ≥Grade 3, number of patients (AML at enrollment (n = 30)): 3 | Hyponatremia ≥Grade 3, number of patients (AML at enrollment (n = 30)): 1 | Hypotension ≥Grade 3, number of patients (AML at enrollment (n = 30)): 3 | Hypovolemia ≥Grade 3, number of patients (AML at enrollment (n = 30)): 1 | Hypoxia ≥Grade 3, number of patients (AML at enrollment (n = 30)): 4 | Investigations ≥Grade 3, number of patients (AML at enrollment (n = 30)): 2 | Leukocytosis ≥Grade 3, number of patients (AML at enrollment (n = 30)): 6 | Metabolism and nutritional disorders ≥Grade 3, number of patients (AML at enrollment (n = 30)): 8 | Multi-organ failure ≥Grade 3, number of patients (AML at enrollment (n = 30)): 2 | Musculoskeletal and connective tissue disorders ≥Grade 3, number of patients (AML at enrollment (n = 30)): 1 | Neoplasms benign, malignant, and unspecified (incl. cysts and polyps) ≥Grade 3, number of patients (AML at enrollment (n = 30)): 2 | Patients with AEs ≥Grade 3, number of patients (AML at enrollment (n = 30)): 23 | Penile Pain ≥Grade 3, number of patients (AML at enrollment (n = 30)): 1 | Platelet count decreased ≥Grade 3, number of patients (AML at enrollment (n = 30)): 2 | Pleural Effusions ≥Grade 3, number of patients (AML at enrollment (n = 30)): 1 | Pneumonia ≥Grade 3, number of patients (AML at enrollment (n = 30)): 4 | Psychiatric disorders ≥Grade 3, number of patients (AML at enrollment (n = 30)): 1 | Renal and urinary disorders ≥Grade 3, number of patients (AML at enrollment (n = 30)): 3 | Reproductive system and breast disorders ≥Grade 3, number of patients (AML at enrollment (n = 30)): 1 | Respiratory distress ≥Grade 3, number of patients (AML at enrollment (n = 30)): 2 | Respiratory failure ≥Grade 3, number of patients (AML at enrollment (n = 30)): 3 | Respiratory, thoracic, and mediastinal disorders ≥Grade 3, number of patients (AML at enrollment (n = 30)): 10 | Tumor lysis syndrome ≥Grade 3, number of patients (AML at enrollment (n = 30)): 1 | Vascular disorders ≥Grade 3, number of patients (AML at enrollment (n = 30)): 3 | AML progression, number of patients (CML at enrollment (n = 5)): 5 | Abdominal Pain ≥Grade 3, number of patients (CML at enrollment (n = 5)): 0 | Acidosis ≥Grade 3, number of patients (CML at enrollment (n = 5)): 0 | Acute kidney injury ≥Grade 3, number of patients (CML at enrollment (n = 5)): 1 | Asthenia ≥Grade 3, number of patients (CML at enrollment (n = 5)): 1 | Back Pain ≥Grade 3, number of patients (CML at enrollment (n = 5)): 0 | Blood and lymphatic system disorders ≥Grade 3, number of patients (CML at enrollment (n = 5)): 2 | Cardiac disorders ≥Grade 3, number of patients (CML at enrollment (n = 5)): 1 | Cataract ≥Grade 3, number of patients (CML at enrollment (n = 5)): 0 | Dyspnea ≥Grade 3, number of patients (CML at enrollment (n = 5)): 0 | Extremity Lower Edema ≥Grade 3, number of patients (CML at enrollment (n = 5)): 0 | Eye disorders ≥Grade 3, number of patients (CML at enrollment (n = 5)): 0 | Febrile neutropenia ≥Grade 3, number of patients (CML at enrollment (n = 5)): 0 | Gastrointestinal disorders ≥Grade 3, number of patients (CML at enrollment (n = 5)): 0 | General disorders and administration site conditions ≥Grade 3, number of patients (CML at enrollment (n = 5)): 2 | Hallucinations ≥Grade 3, number of patients (CML at enrollment (n = 5)): 0 | Heart failure ≥Grade 3, number of patients (CML at enrollment (n = 5)): 1 | Hepatic failure ≥Grade 3, number of patients (CML at enrollment (n = 5)): 0 | Hepatobiliary disorders ≥Grade 3, number of patients (CML at enrollment (n = 5)): 0 | Hypocalcemia ≥Grade 3, number of patients (CML at enrollment (n = 5)): 1 | Hypoglycemia ≥Grade 3, number of patients (CML at enrollment (n = 5)): 1 | Hypokalemia ≥Grade 3, number of patients (CML at enrollment (n = 5)): 1 | Hyponatremia ≥Grade 3, number of patients (CML at enrollment (n = 5)): 1 | Hypotension ≥Grade 3, number of patients (CML at enrollment (n = 5)): 0 | Hypovolemia ≥Grade 3, number of patients (CML at enrollment (n = 5)): 0 | Hypoxia ≥Grade 3, number of patients (CML at enrollment (n = 5)): 0 | Investigations ≥Grade 3, number of patients (CML at enrollment (n = 5)): 0 | Leukocytosis ≥Grade 3, number of patients (CML at enrollment (n = 5)): 2 | Metabolism and nutritional disorders ≥Grade 3, number of patients (CML at enrollment (n = 5)): 4 | Multi-organ failure ≥Grade 3, number of patients (CML at enrollment (n = 5)): 1 | Musculoskeletal and connective tissue disorders ≥Grade 3, number of patients (CML at enrollment (n = 5)): 0 | Neoplasms benign, malignant, and unspecified (incl. cysts and polyps) ≥Grade 3, number of patients (CML at enrollment (n = 5)): 0 | Patients with AEs ≥Grade 3, number of patients (CML at enrollment (n = 5)): 4 | Penile Pain ≥Grade 3, number of patients (CML at enrollment (n = 5)): 0 | Platelet count decreased ≥Grade 3, number of patients (CML at enrollment (n = 5)): 0 | Pleural Effusions ≥Grade 3, number of patients (CML at enrollment (n = 5)): 0 | Pneumonia ≥Grade 3, number of patients (CML at enrollment (n = 5)): 0 | Psychiatric disorders ≥Grade 3, number of patients (CML at enrollment (n = 5)): 0 | Renal and urinary disorders ≥Grade 3, number of patients (CML at enrollment (n = 5)): 1 | Reproductive system and breast disorders ≥Grade 3, number of patients (CML at enrollment (n = 5)): 0 | Respiratory distress ≥Grade 3, number of patients (CML at enrollment (n = 5)): 1 | Respiratory failure ≥Grade 3, number of patients (CML at enrollment (n = 5)): 0 | Respiratory, thoracic, and mediastinal disorders ≥Grade 3, number of patients (CML at enrollment (n = 5)): 1 | Tumor lysis syndrome ≥Grade 3, number of patients (CML at enrollment (n = 5)): 2 | Vascular disorders ≥Grade 3, number of patients (CML at enrollment (n = 5)): 0 | AML progression, number of patients (MDS at enrollment (n = 4)): 2 | Abdominal Pain ≥Grade 3, number of patients (MDS at enrollment (n = 4)): 0 | Acidosis ≥Grade 3, number of patients (MDS at enrollment (n = 4)): 0 | Acute kidney injury ≥Grade 3, number of patients (MDS at enrollment (n = 4)): 0 | Asthenia ≥Grade 3, number of patients (MDS at enrollment (n = 4)): 0 | Back Pain ≥Grade 3, number of patients (MDS at enrollment (n = 4)): 0 | Blood and lymphatic system disorders ≥Grade 3, number of patients (MDS at enrollment (n = 4)): 0 | Cardiac disorders ≥Grade 3, number of patients (MDS at enrollment (n = 4)): 1 | Cataract ≥Grade 3, number of patients (MDS at enrollment (n = 4)): 0 | Dyspnea ≥Grade 3, number of patients (MDS at enrollment (n = 4)): 0 | Extremity Lower Edema ≥Grade 3, number of patients (MDS at enrollment (n = 4)): 0 | Eye disorders ≥Grade 3, number of patients (MDS at enrollment (n = 4)): 0 | Febrile neutropenia ≥Grade 3, number of patients (MDS at enrollment (n = 4)): 0 | Gastrointestinal disorders ≥Grade 3, number of patients (MDS at enrollment (n = 4)): 0 | General disorders and administration site conditions ≥Grade 3, number of patients (MDS at enrollment (n = 4)): 0 | Hallucinations ≥Grade 3, number of patients (MDS at enrollment (n = 4)): 0 | Heart failure ≥Grade 3, number of patients (MDS at enrollment (n = 4)): 1 | Hepatic failure ≥Grade 3, number of patients (MDS at enrollment (n = 4)): 0 | Hepatobiliary disorders ≥Grade 3, number of patients (MDS at enrollment (n = 4)): 0 | Hypocalcemia ≥Grade 3, number of patients (MDS at enrollment (n = 4)): 0 | Hypoglycemia ≥Grade 3, number of patients (MDS at enrollment (n = 4)): 0 | Hypokalemia ≥Grade 3, number of patients (MDS at enrollment (n = 4)): 0
